The source of these data is patent US4426389A, “Derivatives of clavulanic acid, a process for their preparation and their use” (Beecham Group Limited, priority 1979, dated 1984).

Format in all cases: cell-based
The subject of test [1] is Staph. aureus Russell. As to the kind of experiment: Antibacterial activity, MIC, Staph. aureus Russell. As to conditions: Staphylococcus aureus. An excerpt:
(§1) Antibacterial activity of 9-N-(2'-cyanoethyl)aminodeoxyclavulanic acid, MIC μg/ml.

Another test relates to Strep. Pneumoniae. The experiment in a line: Antibacterial activity, MIC, Strep. Pneumoniae. As to conditions: Streptococcus pneumoniae.
Description: as §1

In the next test the test system is Staph. aureus Oxford. The experiment in a line: Antibacterial activity, MIC, Staph. aureus Oxford. As to conditions: Staphylococcus aureus.
Description: as §1

For a further test, the system named is E. coli JT39. As to the kind of experiment: MIC by standard microtitre technique (dilution in tryptone soy broth), E. coli JT39. As to conditions: Escherichia coli, alone. As for the experimental part:
(§2) By a standard microtitre technique the MIC values for ampicillin alone, ampicillin and 9-N-(2'-cyanoethyl)aminodeoxyclavulanic acid and 9-N-(2'-cyanoethyl)aminodeoxyclavulanic acid alone were determined.
(§3) MIC μg/ml (dilution in tryptone soy broth)

Test [2] concerns Staph. aureus Russell. The experiment in a line: MIC by standard microtitre technique (dilution in tryptone soy broth), Staph. aureus Russell. As to conditions: Staphylococcus aureus, alone. The protocol:
as §2, §3

Another test has as its system Kleb. aerogenes E70. As to the kind of experiment: MIC by standard microtitre technique (dilution in tryptone soy broth), Kleb. aerogenes E70. As to conditions: Klebsiella aerogenes, alone.
The next test has as its system Strep. Pyogenes. As to the kind of experiment: Antibacterial activity, MIC, Strep. Pyogenes. As to conditions: Streptococcus pyogenes.
Description: as §1

Structures are written as SMILES. In brackets after ≈: the same amount, converted by molar mass.

For `N#CCCNC/C=C1\O[C@@H]2CC(=O)N2[C@H]1C(=O)O` [9-N-(2'-Cyanoethyl)aminodeoxyclavulanic acid], the MIC (in general, the smallest concentration in the dilution series that meets the test's criterion for growth inhibition) with Staph. aureus Russell [1] was 10 to 20 µg/mL (≈ 39.8 to 79.6 µM); against Strep. Pneumoniae, 5 µg/mL (≈ 19.9 µM); against Staph. aureus Oxford, 10 to 20 µg/mL (≈ 39.8 to 79.6 µM); in the test with E. coli JT39 it was 31 µg/mL (≈ 123 µM); against Staph. aureus Russell [2] it was 16 µg/mL (≈ 63.7 µM); with Kleb. aerogenes E70 it was 250 µg/mL (≈ 995 µM). Moreover, the MIC in the test with Strep. Pyogenes is 10 µg/mL (≈ 39.8 µM).
On to `CC1(C)S[C@@H]2[C@H](NC(=O)[C@H](N)c3ccccc3)C(=O)N2[C@H]1C(=O)O` [Ampicillin, ampicillin, reference compound], for which the MIC with Staph. aureus Russell [2] and in the test on Kleb. aerogenes E70 was 500 to 1000 µg/mL (≈ 1430 to 2860 µM) throughout.
